Assay results taken from patent US7122335B1, “Compounds and methods to enhance rAAV transduction” (priority 1999, dated 2006).

How the values were obtained:
[1] = test system: Hela cells; assay: Cy3-labeled rAAV binding to Hela cells at 4° C., heparin competition; format: cell-based, human; conditions: free heparin at the time of infection
Procedure: FIGS. 18A–D. Cy3-labeled rAAV infection in Hela cells. Hela cells were infected with Cy3-labeled AV.GFP3ori at an MOI of 500 particles/cells for 90 minutes at 4° C. in the absence of serum. Cells were then washed and either directly fixed in 2% paraformaldehyde for 10 minutes or incubated at 37° C. for an additional 60 or 120 minutes prior to fixation. Prior to viral infections, cells were incubated for 30 minutes in 1 μM 5-chloromethylfluorescein diacetate (Cell Tracker™ Green CMFDA, Molecular Probe) to allow for visualization of cells and labeled virus in dual fluorescent channel images. Representative confocal image of cells infected for 90 minutes at 4° C. followed by a 60 and 120 minute incubation at 37° C. are shown for both Cy3 and dual Cy3/FITC channels (FIG. 18A). The nuclei in dual channel images are marked by Nu. The confocal images shown were merged from three 0.5 μm layers taken within the central region of the cell. FIG. 18B depicts non-confocal images with Nomarski and Cy3 channels for cells infected for 90 minutes at 4° C. […]
To assess endocytosis and nuclear trafficking of AAV following treatment with various agents which may modulate these processes, fluorescently labeled virus was prepared. […] Several experimental conditions evaluated crosslinking reactions with dye:rAAV particle ratios of 0.2, 1, 5, 25, 100, and 200. […]

[2] = test system: Hela cells; conditions: previously shown; cited from earlier work

heparin
viral binding of Cy3-labeled rAAV [1]: inhibited in a dose-dependent fashion
rAAV transduction in Hela cells [2]: inhibit most of rAAV transduction
